Assay results as given in the NIST ThermoML archive (doi:10.1021/acs.jced.7b00773).

Details: Liquid; for viscosity: Concentric cylinders viscometry

CCCC[N+]1(C)CCCC1.O=S(=O)([N-]S(=O)(=O)C(F)(F)F)C(F)(F)F
100 kPa
Details | viscosity [mPa·s]
293.15 K | 98.53
303.15 K | 61.87
313.15 K | 41.45
323.15 K | 29.25
333.15 K | 21.53
343.15 K | 16.4
353.15 K | 12.86
363.15 K | 10.33
373.15 K | 8.471

Details | mass density [kg/m3]
293.15 K, 100 kPa, Vibrating tube method | 1398.7
303.15 K, 100 kPa, Vibrating tube method | 1389.8
311.6 K, 10000 kPa, Bellows volumetry | 1389.1
311.6 K, 20000 kPa, Bellows volumetry | 1396.1
311.6 K, 30000 kPa, Bellows volumetry | 1402.6
311.6 K, 40000 kPa, Bellows volumetry | 1408.7
311.6 K, 50000 kPa, Bellows volumetry | 1414.5
311.6 K, 60000 kPa, Bellows volumetry | 1420.1
311.6 K, 70000 kPa, Bellows volumetry | 1425.5
311.6 K, 80000 kPa, Bellows volumetry | 1430.7
311.6 K, 90000 kPa, Bellows volumetry | 1435.5
311.6 K, 100000 kPa, Bellows volumetry | 1440.4
311.6 K, 110000 kPa, Bellows volumetry | 1445.5
311.6 K, 120000 kPa, Bellows volumetry | 1449.8
311.6 K, 130000 kPa, Bellows volumetry | 1454.3
311.6 K, 140000 kPa, Bellows volumetry | 1458.6
311.6 K, 150000 kPa, Bellows volumetry | 1462.9
311.6 K, 160000 kPa, Bellows volumetry | 1467.2
311.6 K, 170000 kPa, Bellows volumetry | 1471.2
311.6 K, 180000 kPa, Bellows volumetry | 1475.1
311.6 K, 190000 kPa, Bellows volumetry | 1479
311.6 K, 200000 kPa, Bellows volumetry | 1483
313.15 K, 100 kPa, Vibrating tube method | 1381
323.15 K, 100 kPa, Vibrating tube method | 1372.4
331.5 K, 10000 kPa, Bellows volumetry | 1372.4
331.5 K, 20000 kPa, Bellows volumetry | 1379.6
331.5 K, 30000 kPa, Bellows volumetry | 1386.5
331.5 K, 40000 kPa, Bellows volumetry | 1393
331.5 K, 50000 kPa, Bellows volumetry | 1399.1
331.5 K, 60000 kPa, Bellows volumetry | 1405
331.5 K, 70000 kPa, Bellows volumetry | 1410.6
331.5 K, 80000 kPa, Bellows volumetry | 1416
331.5 K, 90000 kPa, Bellows volumetry | 1421.3
331.5 K, 100000 kPa, Bellows volumetry | 1426.6
331.5 K, 110000 kPa, Bellows volumetry | 1431.4
331.5 K, 120000 kPa, Bellows volumetry | 1436
331.5 K, 130000 kPa, Bellows volumetry | 1440.6
331.5 K, 140000 kPa, Bellows volumetry | 1445.1
331.5 K, 150000 kPa, Bellows volumetry | 1449.5
331.5 K, 160000 kPa, Bellows volumetry | 1454
331.5 K, 170000 kPa, Bellows volumetry | 1458.1
331.5 K, 180000 kPa, Bellows volumetry | 1462.1
331.5 K, 190000 kPa, Bellows volumetry | 1466.1
331.5 K, 200000 kPa, Bellows volumetry | 1470.2
333.15 K, 100 kPa, Vibrating tube method | 1363.9
343.15 K, 100 kPa, Vibrating tube method | 1355.5
351.6 K, 10000 kPa, Bellows volumetry | 1355.8
351.6 K, 20000 kPa, Bellows volumetry | 1363.3
351.6 K, 30000 kPa, Bellows volumetry | 1370.6
351.6 K, 40000 kPa, Bellows volumetry | 1377.4
351.6 K, 50000 kPa, Bellows volumetry | 1383.9
351.6 K, 60000 kPa, Bellows volumetry | 1390
351.6 K, 70000 kPa, Bellows volumetry | 1395.9
351.6 K, 80000 kPa, Bellows volumetry | 1401.7
351.6 K, 90000 kPa, Bellows volumetry | 1407.4
351.6 K, 100000 kPa, Bellows volumetry | 1412.4
351.6 K, 110000 kPa, Bellows volumetry | 1417.5
351.6 K, 120000 kPa, Bellows volumetry | 1422.3
351.6 K, 130000 kPa, Bellows volumetry | 1427.1
351.6 K, 140000 kPa, Bellows volumetry | 1431.7
351.6 K, 150000 kPa, Bellows volumetry | 1436.5
351.6 K, 160000 kPa, Bellows volumetry | 1440.8
351.6 K, 170000 kPa, Bellows volumetry | 1445.1
351.6 K, 180000 kPa, Bellows volumetry | 1449.2
351.6 K, 190000 kPa, Bellows volumetry | 1453.3
351.6 K, 200000 kPa, Bellows volumetry | 1457.4
353.15 K, 100 kPa, Vibrating tube method | 1347.1
363.15 K, 100 kPa, Vibrating tube method | 1338.7
371.6 K, 10000 kPa, Bellows volumetry | 1339.4
371.6 K, 20000 kPa, Bellows volumetry | 1347.4
371.6 K, 30000 kPa, Bellows volumetry | 1355.3
371.6 K, 40000 kPa, Bellows volumetry | 1362.4
371.6 K, 50000 kPa, Bellows volumetry | 1369.3
371.6 K, 60000 kPa, Bellows volumetry | 1375.8
371.6 K, 70000 kPa, Bellows volumetry | 1382
371.6 K, 80000 kPa, Bellows volumetry | 1387.9
371.6 K, 90000 kPa, Bellows volumetry | 1393.8
371.6 K, 100000 kPa, Bellows volumetry | 1399
371.6 K, 110000 kPa, Bellows volumetry | 1404.3
371.6 K, 120000 kPa, Bellows volumetry | 1409.6
371.6 K, 130000 kPa, Bellows volumetry | 1414.5
371.6 K, 140000 kPa, Bellows volumetry | 1419.3
371.6 K, 150000 kPa, Bellows volumetry | 1424
371.6 K, 160000 kPa, Bellows volumetry | 1428.4
371.6 K, 170000 kPa, Bellows volumetry | 1433
371.6 K, 180000 kPa, Bellows volumetry | 1437.4
371.6 K, 190000 kPa, Bellows volumetry | 1441.6
371.6 K, 200000 kPa, Bellows volumetry | 1445.7
373.15 K, 100 kPa, Vibrating tube method | 1329.8
391.6 K, 10000 kPa, Bellows volumetry | 1323.3
391.6 K, 20000 kPa, Bellows volumetry | 1331.9
391.6 K, 30000 kPa, Bellows volumetry | 1340.1
391.6 K, 40000 kPa, Bellows volumetry | 1347.7
391.6 K, 50000 kPa, Bellows volumetry | 1354.8
391.6 K, 60000 kPa, Bellows volumetry | 1361.5
391.6 K, 70000 kPa, Bellows volumetry | 1368.2
391.6 K, 80000 kPa, Bellows volumetry | 1374.3
391.6 K, 90000 kPa, Bellows volumetry | 1380.3
391.6 K, 100000 kPa, Bellows volumetry | 1385.9
391.6 K, 110000 kPa, Bellows volumetry | 1391.3
391.6 K, 120000 kPa, Bellows volumetry | 1396.9
391.6 K, 130000 kPa, Bellows volumetry | 1401.9
391.6 K, 140000 kPa, Bellows volumetry | 1406.8
391.6 K, 150000 kPa, Bellows volumetry | 1411.5
391.6 K, 160000 kPa, Bellows volumetry | 1416.3
391.6 K, 170000 kPa, Bellows volumetry | 1420.8
391.6 K, 180000 kPa, Bellows volumetry | 1425.3
391.6 K, 190000 kPa, Bellows volumetry | 1429.7
391.6 K, 200000 kPa, Bellows volumetry | 1434
411.3 K, 10000 kPa, Bellows volumetry | 1307.4
411.3 K, 20000 kPa, Bellows volumetry | 1316.7
411.3 K, 30000 kPa, Bellows volumetry | 1325.3
411.3 K, 40000 kPa, Bellows volumetry | 1333.4
411.3 K, 50000 kPa, Bellows volumetry | 1341
411.3 K, 60000 kPa, Bellows volumetry | 1348
411.3 K, 70000 kPa, Bellows volumetry | 1354.7
411.3 K, 80000 kPa, Bellows volumetry | 1361.2
411.3 K, 90000 kPa, Bellows volumetry | 1367.3
411.3 K, 100000 kPa, Bellows volumetry | 1373.4
411.3 K, 110000 kPa, Bellows volumetry | 1379
411.3 K, 120000 kPa, Bellows volumetry | 1384.4
411.3 K, 130000 kPa, Bellows volumetry | 1389.7
411.3 K, 140000 kPa, Bellows volumetry | 1394.9
411.3 K, 150000 kPa, Bellows volumetry | 1400
411.3 K, 160000 kPa, Bellows volumetry | 1404.8
411.3 K, 170000 kPa, Bellows volumetry | 1409.4
411.3 K, 180000 kPa, Bellows volumetry | 1414.1
411.3 K, 190000 kPa, Bellows volumetry | 1418.5
411.3 K, 200000 kPa, Bellows volumetry | 1422.8
